In one series the test system is T. brucei rhodesiense. Conditions: ref Pbox supporting information; read-out: T .b. rohdensie Pbox IC50; cited from earlier work.
The subject of another series is T. brucei brucei. As to conditions: ref Pbox supporting information; read-out: T.b. brucei Pbox IC50; cited from earlier work.
Series [1] deals with L. infanium (macrophages). Also noted: method as in Pbox supporting information. As to conditions: ref Pbox supporting information; cited from earlier work.
Series [2] concerns T. cruzi C4 β-galactosidase reporter parasite in MRC 5SV2 host cells. As to conditions: ref Pbox supporting information; read-out: T. cruzi Pbox IC50; cited from earlier work.
The subject of series [3] is T. b. brucei 427 bloodstream trypanosomes. Nature of the series: T. b. brucei resazurin viability assay. In kind it is cell-based, Trypanosoma brucei brucei. As to conditions: Trypanosoma brucei.
The test system of the next series is HEK293 cells. In words: HEK293 resazurin cell cytotoxicity assay. As to conditions: for IC50 / inhibition at 20 µM: Homo sapiens, HEK293, read-out: HEK % Inhibition 20uM/IC50 Discovery Biology. For orientation: Resazurin is reduced to fluorescent resorufin, in cell work by metabolically active cells.
A further series concerns HepG2. Conditions: cited from earlier work.
Series [4] relates to NF54-pfs16-LUC-GFP stage IV gametocytes. Nature of the series: Plasmodium falciparum late stage gametocyte (LSG) image-based assay. The class given is cell-based.
Series [5] relates to Plasmodium falciparum 3D7 asexual blood stage. Nature of the series: microbe, parasite or virus in culture.
The subject of series [6] is T. cruzi intracellular amastigotes. In words: Intracellular anti-Trypanosoma cruzi image-based assay (amastigotes). Conditions: Trypanosoma cruzi; for Emax: PBox kinetoplastid set compounds active against T. cruzi alone, read-out: Emax against T. cruzi (subefficacious effect); for IC50: intracellular amastigotes, read-out: T cruzi Discovery Biology IC50. In kind it is cell-based.

Setting [7] is: read-out: T b.brucei Discovery Biology IC50.
The mark [8] stands for this setting: PBox compounds, read-out: IC50 T. brucei brucei (Discovery Biology).
Where [9] appears, read: HepG2, ref PBox supporting information.
Where [10] appears, read: Plasmodium falciparum, NF54, read-out: Antiplasmodial IC50 (GAM / LSG), PBox compounds, stage IV gametocytes, single determination.
Setting [11] is: 3D7, read-out: Antiplasmodial IC50 (ABS), PBox compounds, P. falciparum 3D7.

Usually Emax stands for the size of the effect at its maximum, as opposed to the concentration needed.

Where two headings read alike, the source gives them in different places. A value given as a limit tells only on which side of the number the result lay.

`CN1CCCN(C(c2ccccc2)c2ccc(Cl)cc2)CC1` (stereo not drawn) [MMV004168]: the IC50 was 1.94 µM with T. brucei rhodesiense, 4.64 µM in the series with T. brucei brucei, 36.3 µM in series [1] and 9.44 µM in series [2].
As to `Cc1nn2c(O)c3c(nc2c1-c1ccc(F)cc1)CCCC3` [MMV099637], the IC50 in series [3] (setting [7]) is 4.43 µM; with T. brucei rhodesiense it was 0.48 µM; with HEK293 cells, greater than 20 µM; with T. brucei brucei, 1.94 µM; in [1] it was 50.4 µM; in series [2] it was 2.21 µM.
Take `CNC(=O)C1Cc2ccccc2N1C(=O)Cc1ccc(F)cc1` (stereo not drawn) [MMV188296]: the IC50 in [3] (setting [7]) was 1.47 µM; in the series on T. brucei rhodesiense, 0.38 µM; in the series with HEK293 cells, greater than 20 µM; in the series with T. brucei brucei it was 0.49 µM; in series [1], greater than 64 µM; in series [2], greater than 64 µM.
Take `CCC(=O)Nc1ccccc1C(=O)Nc1ccccn1` [MMV202553]: the IC50 was 1 µM in series [3] (setting [8]); 1.01 µM in [3] (setting [7]); 1.31 µM with T. brucei rhodesiense; greater than 20 µM with HEK293 cells; 2.46 µM with T. brucei brucei; greater than 64 µM in series [1]. The IC50 in series [2] was greater than 64 µM.
As to `CCN(CC)S(=O)(=O)c1ccc(C(=O)Nc2cc(C)nn2-c2nc(C)c(C)c(=O)[nH]2)cc1` [MMV595321], the IC50 is 4.34 µM in [3] (setting [7]); 1.7 µM in the series with T. brucei rhodesiense; 5.3 µM in the series with T. brucei brucei; 6.87 µM in [1]; 1.96 µM in series [2]. The “activity in the HEK293 cytotoxicity assay” value in the series with HEK293 cells was “comparable activity”. The inhibition at 20 µM with HEK293 cells worked out at 74%.
With `CO[C@@H](C(=O)N1Cc2n[nH]c(NC(=O)c3ccc(N4CCN(C)CC4)cc3)c2C1)c1ccccc1` [MMV676600], the IC50 was 1.34 µM in [3] (setting [7]); 0.37 µM in the series with T. brucei rhodesiense; 1.02 µM in the series with T. brucei brucei; 4.06 µM in [1]; 6.48 µM in [2]. The inhibition at 20 µM in the series with HEK293 cells was found to be 45%. Further, the “HepG2 PBox CC20” value in the series on HepG2 (setting [9]) was 4.8 µM.
On to `c1ccc(Oc2ccc(-c3cc(N4CCNCC4)[nH]n3)cc2)cc1` [MMV687706], for which the IC50 in series [3] (setting [7]) is 5.05 µM; in the series on T. brucei rhodesiense, 0.97 µM; with HEK293 cells it was greater than 20 µM; in the series on T. brucei brucei, 0.99 µM; in series [1] it was 4.06 µM; in [2], 4.48 µM. Also, the “HepG2 PBox CC20” value with HepG2 (setting [9]) was 6.4 µM.
`c1ccc(Oc2ccc(-c3cc(C4CCOCC4)[nH]n3)cc2)cc1` [MMV687762]: the IC50 in series [3] (setting [7]) was 1.79 µM; with T. brucei rhodesiense, 3.77 µM; in the series with T. brucei brucei, 7.58 µM; in series [1], greater than 32 µM; in [2], 16.4 µM. Further, the “HepG2 PBox CC20” value in the series with HepG2 (setting [9]) is 10.8 µM.
Regarding `CC1=Nc2ccc(Cl)cc2C(O)(c2ccc(C)cc2)N1CCN1CCCCC1` (stereo not drawn) [MMV688279], the IC50 was 4.52 µM in series [3] (setting [7]); 0.43 µM with T. brucei rhodesiense; greater than 20 µM with HEK293 cells; 2.4 µM in [4] (setting [10]); 2.35 µM in series [4] (read-out: Antiplasmodial IC50 (GAM / LSG), PBox compounds, stage IV gametocytes, single determination); 0.32 µM in series [5] (setting [11]). For the same compound, the IC50 in the series with T. brucei brucei was 0.98 µM; in series [1], 4.06 µM; in [2], 4.04 µM. The “HepG2 PBox CC20” value with HepG2 (setting [9]) is 10.0 µM.
With `c1cc(C2=NCCN2)cc(-c2cc(-c3ccc(C4=NCCN4)cc3)no2)c1` [MMV688361], the IC50 with T. brucei rhodesiense is 3 µM; in the series with T. brucei brucei, 5.63 µM; in series [1], greater than 32 µM; in [2] it was greater than 32 µM. Further, the “HepG2 PBox CC20” value in the series with HepG2 (setting [9]) was 4.5 µM.
As to `COc1cc(C2=NCCN2)cc2cc(-c3ccc(C4=NCCN4)cc3)oc12` [MMV688362], the IC50 is 0.78 µM in the series with T. brucei rhodesiense; greater than 20 µM in the series with HEK293 cells; 6.67 µM in series [4] (Plasmodium falciparum, NF54, read-out: Pf Stage IV GAMS Discovery Biology IC50, stage IV gametocytes); 0.59 µM in series [5] (setting [11]); 14.5 µM with T. brucei brucei; greater than 32 µM in [1]. The IC50 in [2] was 13.3 µM. For the same compound, the “HepG2 PBox CC20” value in the series on HepG2 (setting [9]) was 14.3 µM.
Take `COc1cc(C2=NCCN2)ccc1-c1cn(-c2cccc(C3=NCCN3)c2)nn1` [MMV688407]: the IC50 with T. brucei rhodesiense was 3.72 µM; in the series with T. brucei brucei, greater than 32 µM; in [1] it was greater than 32 µM; in [2], 25 µM. In addition, the “HepG2 PBox CC20” value with HepG2 (setting [9]) is 22.9 µM.
On to `CC1=Nc2ccc(Cl)cc2C(c2ccccc2)N1CCNC(=O)CN(C)C` (stereo not drawn) [MMV688410], for which the IC50 is 3.11 µM in the series with T. brucei rhodesiense, 3.78 µM in the series with T. brucei brucei, 10.1 µM in [1] and 17.1 µM in series [2]. In addition, the “HepG2 PBox CC20” value with HepG2 (setting [9]) was 16.4 µM.
For the compound `CO[C@@H]1CN(c2ccc(C#CC3(O)CN4CCC3CC4)c(Cc3ccccc3)n2)C[C@H]1O` (stereo partly drawn) [MMV688415], the IC50 with T. brucei rhodesiense was 4 µM; in the series on HEK293 cells, greater than 20 µM; in [6], 0.1 µM; with T. brucei brucei it was 16.1 µM; in [1], 17.3 µM; in [2] it was less than 0.13 µM. In addition, the Emax in series [6] was less than 100%. In the series with HepG2, the “HepG2 PBox CC20” value was 38.4 µM.
For `COc1cc(C2=NCCN2)ccc1-n1cc(-c2cccc(C3=NCCN3)c2)nn1` [MMV688474], the IC50 in the series on T. brucei rhodesiense is 3.81 µM; in the series on T. brucei brucei, greater than 32 µM; in series [1], greater than 32 µM; in series [2], greater than 32 µM. Moreover, the “HepG2 PBox CC20” value in the series with HepG2 (setting [9]) is greater than 80 µM.
Turning to `N=C(N)c1ccc(-c2cc(-c3ccccc3)on2)cc1` [MMV688514], the IC50 is 3.53 µM in [3] (setting [7]); 1.08 µM in the series on T. brucei rhodesiense; greater than 20 µM in the series with HEK293 cells; 4.06 µM in the series on T. brucei brucei; 2.54 µM in series [1]; 4.04 µM in [2]. The “HepG2 PBox CC20” value with HepG2 (setting [9]) was 2.6 µM.
As to `COc1ccc(C2=NCCN2)cc1-c1cn(-c2cccc(C3=NCCN3)c2)nn1` [MMV688547], the IC50 in the series with T. brucei rhodesiense was 1.63 µM; in the series with HEK293 cells it was greater than 20 µM; in [5] (setting [11]) it was 1.02 µM; in the series with T. brucei brucei, greater than 32 µM; in series [1], greater than 32 µM; in series [2], greater than 32 µM. Also, the “HepG2 PBox CC20” value in the series with HepG2 (setting [9]) was greater than 80 µM.
Regarding `CO/N=C(\C(=O)OC)c1ccccc1CO/N=C(\C)c1cccc(C(F)(F)F)c1` [MMV688754], the IC50 in the series with T. brucei rhodesiense is 26.2 µM; in the series on HEK293 cells, greater than 20 µM; in [4] (setting [10]), 0.14 µM; in [5] (3D7, read-out: Antiplasmodial IC50 (ABS)), 0.19 µM; with T. brucei brucei, 33.6 µM; in series [1], greater than 64 µM. Moreover, the IC50 in [2] was 1.94 µM.
Consider `Cc1cccnc1NC(=O)c1cccc(OCc2c(C)noc2C)c1` [MMV688793], for which the IC50 in [3] (setting [8]) is 1.2 µM; in series [3] (setting [7]) it was 1.16 µM; in the series on T. brucei rhodesiense, 0.65 µM; in the series with HEK293 cells, greater than 20 µM; in the series with T. brucei brucei it was 2.07 µM; in series [1], greater than 64 µM. The IC50 in [2] was greater than 64 µM.
As for `CS(=O)(=O)c1ccccc1C(=O)N(Cc1ccccc1)c1ccccc1` [MMV688798], the IC50 in series [3] (setting [7]) is 0.5 µM; in the series on T. brucei rhodesiense it was 0.4 µM; in the series with HEK293 cells it was greater than 20 µM; in the series on T. brucei brucei it was 0.56 µM; in series [1], greater than 64 µM; in [2], 35.4 µM.
As to `CC(C)(C)C(O)C(Oc1ccc(-c2ccccc2)cc1)n1cncn1` (stereo not drawn) [MMV688942, Bitertanol], the IC50 with T. brucei rhodesiense is 28 µM; in the series with HEK293 cells, greater than 20 µM; in [6], 0.08 µM; in the series on T. brucei brucei it was 32.9 µM; in series [1], greater than 64 µM; in series [2] it was 0.055 µM. Further, the Emax in series [6] was less than 100%.
For `CC1COC(Cn2cncn2)(c2ccc(Oc3ccc(Cl)cc3)cc2Cl)O1` (stereo not drawn) [MMV688943, difenoconazole], the IC50 was 26.2 µM in the series with T. brucei rhodesiense; greater than 20 µM with HEK293 cells; 0.1 µM in series [6]; 32.5 µM with T. brucei brucei; 44.7 µM in series [1]; 0.015 µM in series [2]. In addition, the Emax in [6] is less than 100%.
Consider `Clc1ccc(CN2CCN(C3=NCCN3)CC2)cc1Cl` [MMV689060], for which the IC50 with T. brucei rhodesiense is 30.1 µM; with T. brucei brucei, 31.6 µM; in series [1], greater than 64 µM; in series [2] it was 6.57 µM.
For the compound `CC(=O)Nc1ccc(-c2noc(CC3CCCN(Cc4cccc(F)c4C)C3)n2)cc1` (stereo not drawn) [MMV689061], the IC50 is 25.1 µM in the series on T. brucei rhodesiense, 32.3 µM in the series on T. brucei brucei, 1.59 µM in series [1] and 2.8 µM in [2].
As to `COc1ccc(C2=NN(C3CCCCCC3)C(=O)C2(C)C)cc1OCCCCOc1ccc(-c2nn[nH]n2)cc1` [MMV690028], the figures for the IC50 (in series [3] (setting [7]); with HEK293 cells; in the series on T. brucei brucei) were 2.25 µM, greater than 20 µM and 0.79 µM, respectively.
Take `CCOC(=O)c1noc(N)c1-c1ccccc1` [MMV1236379]: the IC50 was 0.46 µM with T. brucei rhodesiense, 1.22 µM with T. brucei brucei, greater than 64 µM in [1] and greater than 64 µM in series [2].

The values are drawn from paper PMC5571359, “Screening the Medicines for Malaria Venture Pathogen Box across Multiple Pathogens Reclassifies Starting Points for Open-Source Drug Discovery” (Antimicrobial Agents and Chemotherapy, 2017).
